The text below walks through data of patent publication US9102701B2, “17-hydroxy-17-pentafluoroethyl-estra-4,9(10)-diene-11-ethynylphenyl derivatives, methods for the production thereof and use thereof for treating diseases” (Bayer Intellectual Property GmbH, priority 2009, dated 2015).

SMILES strings stand for the structures. pIC50: −log10 of the molar value. Converted amounts (≈) assume the structure as drawn. Read-outs that look alike come from different tables or passages of the source.

What is called pIC50 is −log10 of the IC50, conventionally taken in molar units. As usually defined, the solubility is how much of the substance goes into solution per volume. A lower solubility goes with a poorly soluble substance.

The target of series [1] is T1, human progesterone receptor A (Homo sapiens, UniProt P06401).
T1 construct: expressed in transfected cells; host or cells: SK-N-MC human neuroblastoma cells, stably transfected with pRChPR-A-neo and pMMTV-LUC
T1 sequence (P06401 1-769 isoform P06401-2): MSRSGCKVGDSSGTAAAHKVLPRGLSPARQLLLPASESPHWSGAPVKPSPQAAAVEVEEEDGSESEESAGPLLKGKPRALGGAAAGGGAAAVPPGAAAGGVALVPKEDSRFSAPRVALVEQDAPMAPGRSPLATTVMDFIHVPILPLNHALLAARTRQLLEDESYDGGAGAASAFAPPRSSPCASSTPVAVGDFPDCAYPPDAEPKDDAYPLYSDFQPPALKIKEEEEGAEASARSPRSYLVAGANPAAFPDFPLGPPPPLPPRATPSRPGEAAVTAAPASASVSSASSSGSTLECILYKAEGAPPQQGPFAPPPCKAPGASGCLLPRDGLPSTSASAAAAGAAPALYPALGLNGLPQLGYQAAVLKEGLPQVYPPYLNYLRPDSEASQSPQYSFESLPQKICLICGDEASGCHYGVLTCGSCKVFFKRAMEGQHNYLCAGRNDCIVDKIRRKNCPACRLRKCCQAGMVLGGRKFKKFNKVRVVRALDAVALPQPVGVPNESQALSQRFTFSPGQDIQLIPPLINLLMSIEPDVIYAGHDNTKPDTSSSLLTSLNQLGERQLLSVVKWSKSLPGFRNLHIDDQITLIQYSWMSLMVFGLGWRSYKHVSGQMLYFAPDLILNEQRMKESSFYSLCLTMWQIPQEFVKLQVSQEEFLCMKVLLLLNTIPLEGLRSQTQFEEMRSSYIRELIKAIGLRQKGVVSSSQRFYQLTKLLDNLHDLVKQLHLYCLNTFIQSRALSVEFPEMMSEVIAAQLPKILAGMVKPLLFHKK
As to the kind of experiment: Progesterone receptor-antagonistic action in stably transfected SK-N-MC cells, PR-A, MMTV-LUC reporter. It counts as cell-based. The conditions noted are these: read-out: IC50 PR-A. In a few lines:
(§1)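 SK-N-MC neuroblastoma cells stably expressing human PR-A or PR-B plus MMTV-LUC reporter, treated 24 h with compound (0.01 nmol/l upward). Antagonism measured against 0.1 nmol/l promegestone; luciferase in lysates as RLU, given as % efficacy and IC50 (agonism as EC50).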

The nature of series [2]: Solubility in aqueous medium at pH 7.4. It counts as physicochemical.
The target of series [3] is T2, human progesterone receptor B (Homo sapiens, UniProt P06401).
T2 construct: expressed in transfected cells; host or cells: SK-N-MC human neuroblastoma cells, stably transfected with pRChPR-B-neo and pMMTV-LUC
T2 sequence (P06401 1-933): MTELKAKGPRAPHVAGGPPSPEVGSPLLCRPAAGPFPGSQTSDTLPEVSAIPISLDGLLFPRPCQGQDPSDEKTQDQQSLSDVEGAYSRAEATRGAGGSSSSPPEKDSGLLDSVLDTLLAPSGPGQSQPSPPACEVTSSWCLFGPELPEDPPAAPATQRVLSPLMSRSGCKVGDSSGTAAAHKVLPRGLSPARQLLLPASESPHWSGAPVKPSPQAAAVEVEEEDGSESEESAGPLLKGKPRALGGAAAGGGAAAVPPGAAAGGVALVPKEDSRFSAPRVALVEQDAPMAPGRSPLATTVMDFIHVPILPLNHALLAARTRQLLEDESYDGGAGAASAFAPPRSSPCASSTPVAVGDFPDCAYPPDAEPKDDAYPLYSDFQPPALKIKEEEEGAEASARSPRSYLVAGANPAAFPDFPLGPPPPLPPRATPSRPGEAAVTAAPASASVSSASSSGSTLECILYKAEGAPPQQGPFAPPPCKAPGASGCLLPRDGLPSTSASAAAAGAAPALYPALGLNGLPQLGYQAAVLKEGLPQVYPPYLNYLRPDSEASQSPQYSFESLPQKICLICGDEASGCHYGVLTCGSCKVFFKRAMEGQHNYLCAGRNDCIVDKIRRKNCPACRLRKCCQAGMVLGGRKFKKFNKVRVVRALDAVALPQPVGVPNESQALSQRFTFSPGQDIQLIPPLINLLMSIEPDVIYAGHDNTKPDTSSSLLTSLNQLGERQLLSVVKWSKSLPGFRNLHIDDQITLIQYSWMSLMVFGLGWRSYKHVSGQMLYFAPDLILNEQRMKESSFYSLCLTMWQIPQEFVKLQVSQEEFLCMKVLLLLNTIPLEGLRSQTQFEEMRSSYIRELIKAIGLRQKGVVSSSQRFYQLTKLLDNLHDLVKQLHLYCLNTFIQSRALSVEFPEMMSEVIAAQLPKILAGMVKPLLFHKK
As to the kind of experiment: Progesterone receptor-antagonistic action in stably transfected SK-N-MC cells, PR-B, MMTV-LUC reporter. In kind it is cell-based. The conditions noted are these: read-out: IC50 PR-B. In a few lines:
as §1

Series [4] is described as follows: Metabolic stability in human liver microsomes. It counts as in vitro ADME. Particulars: predicted in vivo clearance from liver microsomes, well-stirred model, 1 μM. The method, then:
Determination of Metabolic Stability in Human and Rat Liver Microsomes
Isolated Human Liver Microsomes (HLM) were Used to Assess the Metabolic Stability of compounds of general formula I.
The incubations were conducted with 2.4 ml of HLM solution (protein content 0.5 mg/ml), 30 μl of the test compound (final concentration 1 μM) and 0.6 ml of the cofactor mixture (═NADPH-generating system composed of 3 IU glucose-6-phosphate dehydrogenase, 14.6 mg glucose-6-phosphate, 1.2 mg NADP) at 37° C. in 100 mM phosphate buffer at pH 7.4. Samples were taken at 6 time points (2-60 min) and precipitated with an equal volume of methanol, and the recovery of the test substances used in the supernatant was determined by LC-MS/MS analysis. The half-life of substance degradation determined therefrom was used to calculate what is called the intrinsic clearance of the substance in the liver microsome preparation.

Take `C[C@]12C[C@H](c3ccc(C#CC(=O)O)cc3)C3=C4CCC(=O)C=C4CCC3C1CC[C@@]2(O)C(F)(F)C(F)(F)F` (stereo partly drawn) [Example 2, [4-((8S,11R,13S,14S,17S)-17-hydroxy-13-methyl-3-oxo-17-pentafluoroethyl-2,3,6,7,8,11,12,13,14,15,16,17-dodecahydro-4H-cyclopenta[a]phenanthren-11-yl)phenyl]propynoic acid]: the pIC50 in series [1] is 7.49; in series [3] it was 7.80. Also, the “solubility (in words)” value in series [2] (aqueous medium under physiological conditions) is given as “improved solubility”. This molecule gave a solubility in series [2] (aqueous medium, pH 7.4, aqueous buffer) of 178 µg/mL (≈ 333 µM). In addition, the “Predicted clearance Human” value in series [4] was 0 mL/min/kg.

With `C[C@]12C[C@H](c3ccc(C#CCOC(=O)NCc4ccccc4)cc3)C3=C4CCC(=O)C=C4CCC3C1CC[C@@]2(O)C(F)(F)C(F)(F)F` (stereo partly drawn) [Example 50, benzylcarbamic acid 3-[4-((8S,11R,13S,14S,17S)-17-hydroxy-13-methyl-3-oxo-17-pentafluoroethyl-2,3,6,7,8,11,12,13,14,15,16,17-dodecahydro-1H-cyclopenta[a]phenanthren-1′-yl)phenyl]prop-2-ynyl ester], the figures for the pIC50 in series [1] and in series [3] were 11.00 and 10.52, respectively.

`C[C@]12C[C@H](c3ccc(C#Cc4cccc(S(C)(=O)=O)c4)cc3)C3=C4CCC(=O)C=C4CC[C@H]3[C@@H]1CC[C@@]2(O)C(F)(F)C(F)(F)F` [Example 51, (8S,11R,13S,14S,17S)-17-hydroxy-11-[4-(3-methanesulphonylphenylethynyl)phenyl]-13-methyl-17-pentafluoroethyl-1,2,6,7,8,11,12,13,14,15,16,17-dodecahydrocyclopenta[a]phenanthren-3-one]: the negative logarithm of the IC50 (pIC50) in series [1] was 10.10; in series [3], 10.00.

Consider `COc1ccc(NC(=O)OCC#Cc2ccc([C@H]3C[C@@]4(C)C(CC[C@@]4(O)C(F)(F)C(F)(F)F)C4CCC5=CC(=O)CCC5=C43)cc2)cc1` (stereo partly drawn) [Example 52, 4-methoxyphenylcarbamic acid 3-[4-((8S,11R,13S,14S,17S)-17-hydroxy-13-methyl-3-oxo-17-pentafluoroethyl-2,3,6,7,8,11,12,13,14,15,16,17-dodecahydro-1H-cyclopenta[a]phenanthren-1′-yl)phenyl]prop-2-ynyl ester], for which the negative-log IC50 (pIC50) is 11.00 in series [1] and 10.15 in series [3].

Regarding `CCOC(=O)c1ccc(NC(=O)OCC#Cc2ccc([C@H]3C[C@@]4(C)[C@@H](CC[C@@]4(O)C(F)(F)C(F)(F)F)[C@@H]4CCC5=CC(=O)CCC5=C43)cc2)cc1` [Example 53, 4-{3-[4-((8S,11R,13S,14S,17S)-17-hydroxy-13-methyl-3-oxo-17-pentafluoroethyl-2,3,6,7,8,11,12,13,14,15,16,17-dodecahydro-1H-cyclopenta[a]phenanthren-11-yl)phenyl]prop-2-ynyloxycarbonylamino}benzoic acid ethyl ester], the pIC50 in series [1] is 9.80; in series [3], 9.72.

As to `C[C@]12C[C@H](c3ccc(C#CCOC(=O)Nc4ccc(N5CCCCC5)cc4)cc3)C3=C4CCC(=O)C=C4CCC3C1CC[C@@]2(O)C(F)(F)C(F)(F)F` (stereo partly drawn) [Example 54, (4-piperidin-1-ylphenyl)carbamic acid 3-[4-((8S,11R,13S,14S,17S)-17-hydroxy-13-methyl-3-oxo-17-pentafluoroethyl-2,3,6,7,8,11,12,13,14,15,16,17-dodecahydro-1H-cyclopenta[a]phenanthren-1′-yl)phenyl]prop-2-ynyl ester], the values for the pIC50 in series [1] and in series [3] were 10.00 and 10.05, respectively.

As to `C[C@]12C[C@H](c3ccc(C#CCOC(=O)Nc4ccc(Cl)cc4)cc3)C3=C4CCC(=O)C=C4CCC3C1CC[C@@]2(O)C(F)(F)C(F)(F)F` (stereo partly drawn) [Example 55, 4-chlorophenylcarbamic acid 3-[4-((8S,11R,13S,14S,17S)-17-hydroxy-13-methyl-3-oxo-17-pentafluoroethyl-2,3,6,7,8,11,12,13,14,15,16,17-dodecahydro-1H-cyclopenta[a]phenanthren-1′-yl)phenyl]prop-2-ynyl ester], the pIC50 in series [1] was 9.59; in series [3], 9.70.

With `C[C@]12C[C@H](c3ccc(C#Cc4ccc(S(C)(=O)=O)cc4)cc3)C3=C4CCC(=O)C=C4CC[C@H]3[C@@H]1CC[C@@]2(O)C(F)(F)C(F)(F)F` [Example 56, (8S,11R,13S,14S,17S)-17-hydroxy-11-[4-(4-methanesulphonylphenylethynyl)phenyl]-13-methyl-17-pentafluoroethyl-1,2,6,7,8,11,12,13,14,15,16,17-dodecahydrocyclopenta[a]phenanthren-3-one], the pIC50 in series [1] (antagonistic potency vs 0.1 nmol/l promegestone, SK-N-MC cells, 24 hours) was 11.00; in series [3], 10.10.

Take `C[C@]12C[C@H](c3ccc(C#CCOC(=O)Nc4cccnc4)cc3)C3=C4CCC(=O)C=C4CC[C@H]3[C@@H]1CC[C@@]2(O)C(F)(F)C(F)(F)F` [Example 57, 3-pyridylcarbamic acid 3-[4-((8S,11R,13S,14S,17S)-17-hydroxy-13-methyl-3-oxo-17-pentafluoroethyl-2,3,6,7,8,11,12,13,14,15,16,17-dodecahydro-1H-cyclopenta[a]phenanthren-1′-yl)phenyl]prop-2-ynyl ester]: the pIC50 is 11.00 in series [1] and 10.10 in series [3].

Take `CC(C)(C)NC(=O)OCC#Cc1ccc([C@H]2C[C@@]3(C)C(CC[C@@]3(O)C(F)(F)C(F)(F)F)C3CCC4=CC(=O)CCC4=C32)cc1` (stereo partly drawn) [Example 58, tert-butylcarbamic acid 3-[4-((8S,11R,13S,14S,17S)-17-hydroxy-13-methyl-3-oxo-17-pentafluoroethyl-2,3,6,7,8,11,12,13,14,15,16,17-dodecahydro-1H-cyclopenta[a]phenanthren-1′-yl)phenyl]prop-2-ynyl ester]: the values for the pIC50 in series [1] and in series [3] were 10.05 and 11.00, respectively.

For `CC(C)(C)c1ccc(NC(=O)OCC#Cc2ccc([C@H]3C[C@@]4(C)C(CC[C@@]4(O)C(F)(F)C(F)(F)F)C4CCC5=CC(=O)CCC5=C43)cc2)cc1` (stereo partly drawn) [Example 59, 4-tert-butylphenylcarbamic acid 3-[4-((8S,11R,13S,14S,17S)-17-hydroxy-13-methyl-3-oxo-17-pentafluoroethyl-2,3,6,7,8,11,12,13,14,15,16,17-dodecahydro-1H-cyclopenta[a]phenanthren-1′-yl)phenyl]prop-2-ynyl ester], the pIC50 in series [1] is 9.15; in series [3], 8.92.
